PMC10518255, “A first-in-class pan-lysyl oxidase inhibitor impairs stromal remodeling and enhances gemcitabine response and survival in pancreatic cancer” (Nature Cancer, 2023)
Several values for one entry are separate records, joined by “and”; a condition that tells them apart may be missing. Equal entries are not always repeated.

Tested on: α-SMA
Test: Immunohistochemistry of end-point KPC tumors: myCAF marker
Type: in vivo, mouse
Settings: for Percent coverage of aSMA positive staining: Extended Data 6B, KPC tumours at endpoint, individual FOV
Procedure: All tissues or matrices, including patient TMAs, were fixed in 10% buffered formalin and embedded in paraffin. The 4-μm sections of samples were deparaffinized with xylene and rehydrated in graded ethanol washes. For immunohistochemistry, Bond Dewax Solution (AR9222) was used. Antigen retrieval was performed using Bond RX H2(30) protocol: HIER 30 min ER1 (citrate pH 6) OR ER2 (EDTA pH 9) at 100 °C. Slides were quenched in BOND Polymer Refine Detection (Leica Biosystems DS9800). […] Slides were digitized on an Aperio slide scanner and representative areas per tumor acquired and analyzed by researchers blinded to the conditions of the experiment.
Extended Data Fig. 6 PXS-5505 in combination with gemcitabine in a KPC model. a. Quantification of proliferating cells (Ki67 positive nuclear staining) in KPC tumors at end point, treated as indicated. 5 fields of view (500 μm × 500 μm) per mouse and 10 mice per cohort were scored. […] Quantification of percent coverage of αSMA positive staining in KPC tumors at end point, treated as indicated. 3 fields of view (1000 μm × 1000 μm) per mouse and 10 mice per cohort were scored. […] Quantification of percent coverage of PDGFR-ß positive staining in KPC tumors at end point, treated as indicated. 3 fields of view (1000 μm × 1000 μm) per mouse and 10 mice per cohort were scored. […] Quantification of pMLC2 positive staining in stromal regions of KPC tumors at end point, treated as indicated. 3 fields of view (500 μm × 500 μm) per mouse and 10 mice per cohort were scored. […] Quantification of tumor vasculature (CD31 positive staining) in KPC tumors at end point, treated as indicated. 3 fields of view (1000 μm × 1000 μm) per mouse and 10 mice per cohort were scored. […] Quantification of STAT3 activation (pSTAT3 positive nuclear staining) in KPC tumors at end point, treated as indicated. 3 fields of view (1000 μm × 1000 μm) per mouse and 5 mice per cohort were scored. […] Scale bars = 100 μm. g Quantification of macrophage infiltration (F4/80 positive staining) in KPC tumors at end point, treated as indicated. […]

SMILES	Percent coverage of aSMA positive staining	α-SMA positivity (KPC tumors at end point)
Nc1ccn([C@@H]2O[C@H](CO)[C@@H](O)C2(F)F)c(=O)n1 [Gem, gemcitabine]	4.1422% and 8.8428% and 3.9128% and 4.9851% and 3.7908% and 3.4102% and 13.5235% and 10.8353% and 9.6686% and 1.9907% and 2.1823% and 5.2926% and 3.0437% and 5.4036% and 4.2058% and 8.1217% and 4.3012% and 3.1567% and 3.0046% and 1.1246% and 5.0654% and 7.8034% and 8.097% and 1.0094% and 7.1387% and 7.3633% and 7.7939% and 1.1199% and 2.3003% and 3.6904%	small decreases in positivity
Cl.Cl.NC/C=C(\F)CS(=O)(=O)c1cccc2cccnc12.O [PXS-5505, (Z)-3-fluoro-4-(quinolin-8-ylsulfonyl)but-2-en-1-amine dihydrochloride monohydrate]	3.0735% and 6.2874% and 6.4326% and 3.0495% and 2.5796% and 2.9175% and 6.2269% and 8.7759% and 5.9209% and 8.6578% and 7.7662% and 8.3469% and 5.6452% and 6.7775% and 4.6186% and 7.36% and 5.232% and 2.4577% and 4.7266% and 9.579% and 5.032% and 5.1635% and 4.6717% and 8.3034% and 3.41% and 6.5089% and 4.6457% and 1.885% and 5.2516% and 5.0893%	–
